Where two headings read alike, the source gives them in different places.
What was measured:
bone marrow cells = conditions: in vivo
Hemolytic Anemia Model = experiment: Hemolytic anemia model (acetylphenylhydrazine), rats; format: in vivo, male Wistar rats
Method: (§1) 1. […] All drugs were diluted by distilled water.
2. […] Animal diet also was purchased from Beijing Medical University.
(1) Hemolytic Anemia Model: Hemolytic anemia model was prepared for rats by injecting reagent of acetylphenylhydrazine (C8 H10 N2 O, produced by Beijing Biochemical Company) subcutaneously. The drug acetyphenylhydrazine was mixed with physiological saline to get its injection solution of 4% by weight of acetyphenylhydrazine. The solution was injected subcutaneously into each rat with a dosage of 57 μg/g at the beginning of the experiments. The content of blood hemochrome for each rat was examined at 2 days and 4 days later, respectively. When the mean blood hemochrome decreased to about 6.11±0.25 g %, rats were randomly divided into 6 groups of 18 rats each. […] The forth groups was positive drug control groups. The fifth group and the sixth group were designed as model group and normal control group, respectively.

mice testicle cells = conditions: mouse, in vivo
Nutritional IDA Model = tested on: Nutritional IDA Model
Method: as §1
(2) Nutritional Anemia Model: Male Wistar rats with body weight 43±2.5 g (Animal Center of Beijing Medical University) were randomly divided into 8 groups of 10 rats each, wherein 6 groups were established for the investigation of nutritional anemia and 2 groups were used as normal control group. The rats of these six groups were supplemented with iron-low diet (prepared according to the formula of AOAC, iron content 8.0 mg/kg) and deionized water four weeks to prepare the nutritional IDA model, which also was called hemoglobin exhausting test. Another two groups were designed as normal control groups and were provided with normal diet (obtained from Beijing Medical University) and water during the whole experimental period.
Hemoglobin of each group of rats was measured one time every 7 days. […] Other 6 groups (three for ferrous L-threonate, one for ferrous gluconate, one for mode control and one normal control group) rats were kept under controlled conditions (ambient temperature 23° C., 60% relative humidity, and 10 hours light) in animal feeding room to continue the further test.

Blood-loss Anemia Model = experiment: Blood-loss anemia model, rats; conditions: for Blood hemochrome content / GPC (blood granulophilocyte) / RBC: n=10;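 as to all read-outs here: male Wistar rats made anemic by repeated orbital bloodletting, kept on iron-low diet with deionized water while dosed, compared against untreated anemic model and normal-diet control groups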
Method: Ferrous gluconate, the positive control drug, yellow-green powder and 11% ferrous content, was purchased from Ganjian Pharmaceutical Company of Jianxi Province. Ferrous fumarate, 6.4% ferrous content, was purchased from the 18th Pharmaceutical Company of Shanghai. All drugs were diluted by distilled water.
7 groups were prepared as hemolytic anemia groups and one group was taken as normal control group supplemented with normal diet and water. The hemolytic anemia model was prepared by subjecting rats to inner canthus bloodletting of right eye through capillary glass tube. The first bloodletting content was 2.0 ml for each rat and in that time the range of hemochrome for rats was from 9.78 to 10.65 g %. Two days later, the second bloodletting (2 ml/rat) was carried out with the hemochrome values of 7.40-7.88 g %. The total bloodletting volume for each rat was 4 ml and was 32.9% in volume of the whole blood circulating the body.
While one hemolytic anemia group and one normal control group were taken as reference groups compared with other groups left. These two groups' rats were killed and the blood parameters were recorded. Other six groups now were randomly divided into three treatment groups of ferrous L-threonate with high, middle and low dosages respectively, two positive drugs control groups of ferrous gluconate and ferrous fumarate and one model group. At the end of 12 days and 18 days experimental periods, 5 and 10 rats of each group were killed correspondingly. During the course of experiment, the variations of hemochrome content were examined with 6 days interval.
While Element ferrous content 8.64 mg/kg as ferrous gluconate or ferrous fumarate was for positive drug control group. The groups for blood-loss anemia were provided iron-low diet and deionized water during the period of the administration of drugs, while the normal animal control group was provided normal diet and deionized water.

IDA for Children = conditions: for FEP / RBC / SF / Hb: tablets 7.5 mg Fe + 30 mg vitamin C
Method: Subjects: Thirty school-age children aged from 8 to 13 years of Haerbin city of China.
Methods: Blood samples of 10 μl from ear and 5 ml from arm vein for each patient were collected for measurement.
(1) Measurement of RBC: 10 μl blood sample was added to 2 ml diluent and the mixture was shaken completely. One drop of this suspending solution taken by circle glass bar was poured into counting cell. RBC was countered through microscope by laying counting plate on the microstat.
(2) Measurement of HB: The ferric cyanide method was used to determine the HB. 10 μl ear blood sample was added to 5 ml acid diluent to obtain the completely mixed solution by shaking. HB was measured by SH hemoglobinometer manufactured by Huauang Instrument Company of Jianshu Province. Ferric cyanide was purchased from Medical Examination Institute of Shanghai.
(3) Measurement of FEP: To add 0.05 ml whole blood sample anticoagulated by heparin to 3.5 ml of acid anhydrous ethyl alcohol, the mixture was shaken for 5 min and then was centrifugalized with speed of 3000 r/min. The centrifugate of mixture was used for the measurement of fluorometric method (400 nm for exciting optical filter and 600 nm for emitting optical filter).
According to formula given below, the FEP can be calculated. [formula]
Where Fu and PCV represent fluorescence extent and hematocrit, respectively.
To centifugalized 2 ml whole blood sample, the upper solution was used for measurement of SF through the method of radio-immune competition-inhibition program.
Among these 62 IDA patients, 30 children were randomly selected as treatment group of ferrous L-threonate.
Another 30 children with IDA were selected from another prime school with the same diagnosing standards and were established as control group.
Observation time for treatment group and control group was 30 days period and during that period, there were no any intervention on children's activity and food.
(3) Dosages: Each child of treatment group was administered ferrous L-threonate tablets twice a day, one tablet each time. While normal control group was treated with placebo by the same method.

[1] = 8.64 mg Fe/kg (middle dosage / positive control)
[2] = 8.64 mg Fe/kg (middle dosage / positive controls), 12 days
[3] = 8.64 mg Fe/kg (middle dosage / positive controls), 18 days
[4] = high dosage, 17.28 mg Fe/kg, 12 days
[5] = high dosage, 17.28 mg Fe/kg, 18 days
[6] = low dosage, 4.32 mg Fe/kg, 12 days
[7] = low dosage, 4.32 mg Fe/kg, 18 days
[8] = after treatment (30 days), twice a day

In the case of ferrous L-threonate, the micronucleus test result (bone marrow cells) is reported as “negative”, the “Iron content of whole blood” value (Hemolytic Anemia Model; [1]) is reported as 301.89 ± 19.500 µg/mL and the “Serum ferritin (SF)” value (Hemolytic Anemia Model; [1]) is reported as 23.54 ± 2.50 ng/mL. It also gave a hemoglobin content (Hemolytic Anemia Model; 8.64 mg Fe/kg (middle dosage / positive control), after anemia (before treatment)) of 5.87 g %, a hemoglobin content (Hemolytic Anemia Model; 8.64 mg Fe/kg (middle dosage / positive control), before anemia (baseline)) of 15.01 g % and a hemoglobin content (Hemolytic Anemia Model; 8.64 mg Fe/kg (middle dosage / positive control), one week after treatment) of 11.11 g %. For the same substance, the hemoglobin content (Hemolytic Anemia Model; 8.64 mg Fe/kg (middle dosage / positive control), two weeks after treatment) was 14.04 g %, the “whole blood iron and serum ferritin compared with ferrous gluconate group” value (Hemolytic Anemia Model; groups except low dosage group) was “more considerably better than those of ferrous gluconate group” and the “Iron content of whole blood” value (Hemolytic Anemia Model; high dosage, 17.28 mg Fe/kg) was 326.95 ± 26.956 µg/mL. For the same substance, the “Serum ferritin (SF)” value (Hemolytic Anemia Model; high dosage, 17.28 mg Fe/kg) was 24.05 ± 1.74 ng/mL, the hemoglobin content (Hemolytic Anemia Model; high dosage, 17.28 mg Fe/kg, after anemia (before treatment)) was 6.18 g % and the hemoglobin content (Hemolytic Anemia Model; high dosage, 17.28 mg Fe/kg, before anemia (baseline)) was 14.9 g %. For the same substance, the hemoglobin content (Hemolytic Anemia Model; high dosage, 17.28 mg Fe/kg, one week after treatment) was 11.95 g %, the hemoglobin content (Hemolytic Anemia Model; high dosage, 17.28 mg Fe/kg, two weeks after treatment) was 14.34 g % and the “Iron content of whole blood” value (Hemolytic Anemia Model; low dosage, 4.32 mg Fe/kg) was 283.53 ± 23.051 µg/mL. For the same substance, the “Serum ferritin (SF)” value (Hemolytic Anemia Model; low dosage, 4.32 mg Fe/kg) was 19.38 ± 1.57 ng/mL, the hemoglobin content (Hemolytic Anemia Model; low dosage, 4.32 mg Fe/kg, after anemia (before treatment)) was 5.94 g % and the hemoglobin content (Hemolytic Anemia Model; low dosage, 4.32 mg Fe/kg, before anemia (baseline)) was 14.89 g %. The hemoglobin content (Hemolytic Anemia Model; low dosage, 4.32 mg Fe/kg, one week after treatment) was 9.95 g %, the hemoglobin content (Hemolytic Anemia Model; low dosage, 4.32 mg Fe/kg, two weeks after treatment) was 12.57 g % and the “action on treating anemia compared with ferrous gluconate” value (Hemolytic Anemia Model; same dosage of iron, 8.64 mg/kg) was “considerably better than ferrous gluconate”. For the same substance, the “chromosome aberration test result” value (mice testicle cells) was “negative”, the “hemochrome content, onset of increase” value (Nutritional IDA Model; end of 7 days supplementation) was “started to increase at the end of 7 days supplementation” and the “hemochrome content compared with normal control groups” value (Nutritional IDA Model; rat, in vivo) was “reached nearly the normal levels of normal control groups”. The “parameters investigated compared with ferrous gluconate” value (Nutritional IDA Model; same ferrous dosage) was “better than those of the known drug, ferrous gluconate”, the Blood hemochrome content (Blood-loss Anemia Model; 8.64 mg Fe/kg (middle dosage / positive controls), 6 days after treatment) was 8.35 ± 0.21 and the Blood hemochrome content (Blood-loss Anemia Model; 8.64 mg Fe/kg (middle dosage / positive controls), 12 days after treatment) was 10.67 ± 0.37. The “GPC (blood granulophilocyte)” value (Blood-loss Anemia Model; [2]) was 12.58%, the RBC (Blood-loss Anemia Model; [2]) was 4.81e+12 L⁻¹ and the Blood hemochrome content (Blood-loss Anemia Model; 8.64 mg Fe/kg (middle dosage / positive controls), 18 days after treatment) was 12.14 ± 0.27. For the same substance, the “GPC (blood granulophilocyte)” value (Blood-loss Anemia Model; [3]) was 8.44%, the RBC (Blood-loss Anemia Model; [3]) was 5.21e+12 L⁻¹ and the Blood hemochrome content (Blood-loss Anemia Model; 8.64 mg Fe/kg (middle dosage / positive controls), before treatment) was 7.40 ± 0.54. For the same substance, the Blood hemochrome content (Blood-loss Anemia Model; high dosage, 17.28 mg Fe/kg, 6 days after treatment) was 8.70 ± 0.43, the Blood hemochrome content (Blood-loss Anemia Model; high dosage, 17.28 mg Fe/kg, 12 days after treatment) was 11.01 ± 0.34 and the “GPC (blood granulophilocyte)” value (Blood-loss Anemia Model; [4]) was 10.04%. The RBC (Blood-loss Anemia Model; [4]) was 5.67e+12 L⁻¹, the Blood hemochrome content (Blood-loss Anemia Model; high dosage, 17.28 mg Fe/kg, 18 days after treatment) was 12.40 and the “GPC (blood granulophilocyte)” value (Blood-loss Anemia Model; [5]) was 7.84%. It also gave an RBC (Blood-loss Anemia Model; [5]) of 5.84e+12 L⁻¹, a Blood hemochrome content (Blood-loss Anemia Model; high dosage, 17.28 mg Fe/kg, before treatment) of 7.88 ± 0.28 and a Blood hemochrome content (Blood-loss Anemia Model; low dosage, 4.32 mg Fe/kg, 6 days after treatment) of 8.00 ± 0.42. The Blood hemochrome content (Blood-loss Anemia Model; low dosage, 4.32 mg Fe/kg, 12 days after treatment) was 10.20 ± 0.49, the “GPC (blood granulophilocyte)” value (Blood-loss Anemia Model; [6]) was 13.12% and the RBC (Blood-loss Anemia Model; [6]) was 4.242e+12 L⁻¹. The Blood hemochrome content (Blood-loss Anemia Model; low dosage, 4.32 mg Fe/kg, 18 days after treatment) was 11.26 ± 0.79, the “GPC (blood granulophilocyte)” value (Blood-loss Anemia Model; [7]) was 8.91% and the RBC (Blood-loss Anemia Model; [7]) was 4.76e+12 L⁻¹. For the same substance, the Blood hemochrome content (Blood-loss Anemia Model; low dosage, 4.32 mg Fe/kg, before treatment) was 7.61 ± 0.53, the “effect on treating IDA compared with both ferrous gluconate and ferrous fumarate” value (Blood-loss Anemia Model; same ferrous dosage) was “better effects on treating IDA compared with both ferrous gluconate and ferrous fumarate” and the “improvement and cure of anemia compared with ferrous gluconate and ferrous fumarate” value (Blood-loss Anemia Model; summary statement covering hemolytic anemia, blood-loss anemia and nutritional IDA) was “can significantly improve and cure hemolytic anemia, blood-loss anemia and nutritional IDA”. The toxicity grade (rat; acute toxicity, rat) was “belongs to the grade of very lower”, the LD50 (rat; female rat) was 3160 mg/kg and the LD50 (rat; male rat) was 3690 mg/kg. For the same substance, the safety in use (rat; rat, in vivo) was “used safely and without toxicity”, the “variations of Hb, SF and RBC compared with control group” value (IDA for Children; 30 days of treatment, P<0.01) was “significantly better compared with those of control group (P<0.01)” and the FEP (IDA for Children; after treatment (30 days)) was 445.1 µg/L. For the same substance, the RBC (IDA for Children; [8]) was 401.5 ± 12.4 10^4 /mm^3, the SF (IDA for Children; [8]) was 17.01 ± 1.99 µg/L and the Hb (IDA for Children; before treatment, twice a day) was 104.8 ± 6.1 g/L. The RBC (IDA for Children; before treatment, twice a day) was 387 ± 6.67 10^4 /mm^3, the SF (IDA for Children; before treatment, twice a day) was 12.45 ± 1.50 µg/L and the “number of children with Hb > 120 g/L and ΔHb > 10 g/L” value (IDA for Children; n=30, tablets, 30 days) was 17. The “number of children with no effectiveness” value (IDA for Children; n=30, tablets, 30 days) was 6, the “number of children with ΔHb > 5 g/L” value (IDA for Children; n=30, tablets, 30 days) was 7 and the “share of children with Hb > 120 g/L and ΔHb > 10 g/L” value (IDA for Children; n=30, tablets, 30 days) was 56.7%. The “share of children with no effectiveness” value (IDA for Children; n=30, tablets, 30 days) was 20.0%, the “share of children with ΔHb > 5 g/L” value (IDA for Children; n=30, tablets, 30 days) was 23.3% and the FEP (IDA for Children; printed under after treatment (30 days)) was 120.4 ± 11.2 µg/L. The Hb (IDA for Children; printed under before treatment) was 669.1 ± 72.0 g/L, the “effective rate of improving the case of IDA for children” value (IDA for Children; tablets, 30 days) was 80% and the “variations of Hb, SF and RBC before and after treatment” value (IDA for Children; treatment group, P<0.01) was “understandingly significant difference (P<0.01)”.

Source: patent US6313170A, “L-threonate ferrous, as well as pharmaceutical composition and use for improving and treating human anemia thereof” (priority 1997, dated 2001)
